Where two headings read alike, the source gives them in different places.
Experiments:
[1] = system: hippocampal neurons expressing YFP-hGluN1-1a-S688Y; assay: NMDA-induced excitotoxicity, hippocampal neurons expressing YFP-hGluN1-1a-S688Y; format: cell-based, rat; conditions: 1 h treatment, measured 23 h later
Experimental: (§1) Excitotoxicity was measured 23 h after treatment by staining cells with the nuclear marker Hoechst 33,342 and then performing complex image analysis (Fig. 6a,b; see "Methods").
(§2) Excitotoxicity was induced as described previously. In brief, the cultured neurons were incubated overnight in 10% MEM (Thermo Fisher Scientific) and 90% salt-glucose (SG) medium containing 114 mM NaCl, 0.219% NaHCO3, 5.292 mM KCl, 1 mM MgCl2, 2 mM CaCl2, 10 mM HEPES, 30 mM glucose, […], and 0.1% phenol red. The following day, the media was replaced with 100% SG and the indicated concentrations of agonists/co-agonists were added to the neurons. […] Nuclear area was measured using ImageJ software (v. 1.52p), and custom-made macro scripts were used to automatically measure only the nuclei of infected cells (identified by YFP expression). […] The ratio of the number of cells in each group was then used to estimate the effects of mixing the two distributions and is expressed as the ratio of pyknotic and non-pyknotic cells. The percentage of pyknotic cells in each condition was then calculated as the number of cells classified as pyknotic divided by the total number of cells in that condition.

[2] = biological target: T1, hippocampal neurons expressing YFP-hGluN1-1a (Rattus norvegicus, UniProt P35439, I267L/M415L/N159S/R212K); assay: NMDA-induced excitotoxicity, hippocampal neurons expressing YFP-hGluN1-1a; format: cell-based; conditions: 1 h treatment, measured 23 h later
T1 construct: expressed in transfected cells; host or cells: primary rat hippocampal neurons (E18 Wistar), lentiviral infection with shRNA knock-down of endogenous GluN1
Experimental: as §1, §2

[3] = system: hippocampal neurons expressing YFP-hGluN1-1a; conditions: steady-state concentration-response, in the presence of 1 mM NMDA
[4] = system: hippocampal neurons expressing YFP-hGluN1-1a-S688Y; conditions: 10 µM glycine together with 100 µM NMDA
[5] = system: hippocampal neurons expressing YFP-hGluN1-1a
hGluN1-4a-S688Y/hGluN3A = hGluN1-4a-S688Y/hGluN3A vs hGluN1-4a/hGluN3A, peak response
[6] = system: hippocampal neurons expressing YFP-hGluN1-1a-S688Y; conditions: steady-state concentration-response, in the presence of 1 mM NMDA
GluN1 S688A mutation = conditions: S688A mutation vs wild type; cited from earlier work
[7] = 10 µM co-agonist in the presence of 100 µM NMDA

| SMILES | neuronal cell death (% of d.n., pyknotic nuclei) ([1]; 10 µM co-agonist alone) | neuronal cell death / excitotoxicity (% of d.n., pyknotic nuclei) [1, 7] | neuronal cell death (% of d.n., pyknotic nuclei) ([2]; 10 µM co-agonist alone) | neuronal cell death / excitotoxicity (% of d.n., pyknotic nuclei) [2, 7] [%] | EC50 [3] [µM] | Hill coefficient (h) [3] | EC50 ([3]; listed as Glycine) [µM] | intracellular Ca2+ (Fura-2 F340/F380) [4] | intracellular Ca2+ (Fura-2 F340/F380) ([5]; 10 µM glycine together with 100 µM NMDA) | intracellular Ca2+ (Fura-2 F340/F380) ([5]; 1000 µM glycine together with 100 µM NMDA) | decrease in glycine potency compared to wild-type receptors (hGluN1-4a-S688Y/hGluN3A) | EC50 [6] [µM] | Hill coefficient (h) [6] | EC50 ([6]; listed as Glycine) [µM] | reduction in glycine potency (GluN1 S688A mutation) |
| --- | --- | --- | --- | --- | --- | --- | --- | --- | --- | --- | --- | --- | --- | --- | --- |
| N[C@H](CO)C(=O)O [D-serine] | only a small degree of cell death | significantly reduced cell death | only a small degree of cell death | ~100 | – | – | – | – | – | – | – | – | – | – | – |
| NCC(=O)O [glycine] | – | – | – | – | 0.2 | 1.15 ± 0.05 | 0.17 ± 0.02 | no measurable effect | robust increase | robust increase | ~ twofold | 220 | 0.82 ± 0.06 | 219 ± 6.11 | four-fold |

Source: article PMC7596085, “The pathogenic S688Y mutation in the ligand-binding domain of the GluN1 subunit regulates the properties of NMDA receptors” (Scientific Reports, 2020)
